IC50 data for 11 compounds are collected here from patent US20240391965A1, “STAPLED ANTIMICROBIAL PEPTIDES (STAMPS) AND USES THEREOF” (Lytica Therapeutics, Inc., priority 2021, published 2024).

Converted amounts (≈) assume the structure as drawn. Starred links: 1 amine or outer side, 2 acyl side, 3 side chain; linkers in the order of their positions; H or OH if unused. Positions of bridges follow the written chain, without caps; N, C: chain ends. Residues, ends and D or L forms follow the SMILES beside them. Biphenyl(4,4'-CH2)2 = c1cc(-c2ccc(C[*:2])cc2)ccc1C[*:1]; mXylylene = c1cc(C[*:1])cc(C[*:2])c1; pXylylene = c1cc(C[*:2])ccc1C[*:1]; X1 = C(=CC[*:2])C[*:1]

The nature of series [1]: 48 hours cytotoxicity assay (CellTiter-Glo), liver toxicity. Format: cell-based, human. From the text: In some embodiments, a peptide provided herein has hepatic toxicity that is at least 10% (e.g., at least 15%, at least 20%, at least 25%, at least 30%, at least 35%, at least 40%, at least 45%, at least 50%, at least 55%, at least 60%, at least 65%, at least 65%, at least 70%, at least 75%, at least 80%, at least 85%, at least 90%, at least 95%, at least 99%) lower than the hepatic toxicity of the reference. The hepatic toxicity of a peptide can be measured in vitro using a human liver cells (e.g., HepG2) toxicity assay.
(§1) Cell culture: RPTEC were maintained in MEM media supplemented with growth factors. HEPG2 cell line was maintained in Eagle's Minimum Essential Medium (EMEM) supplemented with fetal bovine serum to a final concentration of 10%.
48 hours cytotoxicity assay: Cells were plated in a 96-well format, and after 4 hour incubation to allow attachment, serial dilutions of StAMPs from a 5 mg/mL water stock, or vehicle, were then added to the cells in a final volume of 100 μl. After incubating at 37° C. for 48 hours, 100 μl of CellTiter-Glo® reagent was added to the cells, and the plates were incubated 10 minutes at room temperature. Luminescence was then measured on a microplate reader.
(§2) Renal toxicity was measured after 90 minutes of incubation, while liver toxicity was measured after 48 hours of incubation with StAMPs. N/A=not tested.
Background: In ATP-based viability assays light output follows the ATP content of the culture.

Series [2] in a line: 90 minute cytotoxicity assay (LDH release), renal toxicity. Format: cell-based.
From the text: In some embodiments, a peptide provided herein has renal toxicity that is at least 10% (e.g., at least 15%, at least 20%, at least 25%, at least 30%, at least 35%, at least 40%, at least 45%, at least 50%, at least 55%, at least 60%, at least 65%, at least 65%, at least 70%, at least 75%, at least 80%, at least 85%, at least 90%, at least 95%, at least 99%) lower than the renal toxicity of the reference. The renal toxicity of a peptide can be measured in vitro using a renal proximal tubule epithelial cell (RPTEC) renal toxicity assay.
as §1
90 minute cytotoxicity assay: Cells were plated in a 96-well format, and after overnight incubation, media was replaced with fresh media. Serial dilutions of StAMPs from a 5 mg/mL water stock, or vehicle, were added to the cells in a final volume of 100 μl. After incubating at 37° C. for 90 min, 50 μl of cell culture media was transferred to a clear 96-well plate, incubated with 50 μl of lactate dehydrogenase (LDH) assay reagent for 10 min, and absorbance measured at 490 nm on a microplate reader.
as §2
A general note: Release of lactate dehydrogenase indicates damage to the cell membrane.

For the compound `CC[C@H](C)[C@H](NC(=O)CN)C(=O)N[C@@H](Cc1ccccc1)C(=O)N[C@@H](CO)C(=O)N[C@@H](CCCCN)C(=O)N[C@@H](CC(C)C)C(=O)N[C@H]1CSCC=CCSC[C@@H](C(=O)N[C@@H](CCCCN)C(=O)N[C@@H](CC(N)=O)C(=O)N[C@@H](CC(C)C)C(=O)N[C@@H](CC(C)C)C(=O)N[C@H](C(=O)N[C@@H](CO)C(=O)NCC(=O)N[C@@H](CC(C)C)C(=O)N[C@@H](CCCCN)C(=O)NCC(N)=O)[C@@H](C)CC)NC(=O)[C@H](CCCCN)NC(=O)[C@H](CCCCN)NC(=O)CNC1=O` [compound 4] (H-GIFSKLCGKKCKNLLISGLKG-NH2; linker 7-11 via X1; N-terminus assumed), the figures for the IC50 in series [1] and in series [2] were 98 µg/mL (≈ 43.4 µM) and around 200 µg/mL (≈ 88.5 µM), respectively. In the same order, the values of `CC[C@H](C)[C@H](NC(=O)CN)C(=O)N[C@@H](Cc1ccccc1)C(=O)N[C@H]1CSCc2cccc(c2)CSC[C@@H](C(=O)N[C@@H](CCCCN)C(=O)N[C@@H](CCCCN)C(=O)N[C@H](C(=O)N[C@@H](CCCCN)C(=O)N[C@@H](CC(N)=O)C(=O)N[C@@H](CC(C)C)C(=O)N[C@@H](CC(C)C)C(=O)N[C@H](C(=O)N[C@@H](CO)C(=O)NCC(=O)N[C@@H](CC(C)C)C(=O)N[C@@H](CCCCN)C(=O)NCC(N)=O)[C@@H](C)CC)[C@@H](C)CC)NC(=O)[C@H](C)NC(=O)[C@H](CC(C)C)NC(=O)[C@H](CCCCN)NC1=O` [compound 5] (H-GIFCKLACKKIKNLLISGLKG-NH2; linker 4-8 via mXylylene; N-terminus assumed) are 23 µg/mL (≈ 9.79 µM) and 14 µg/mL (≈ 5.96 µM). For `CC[C@H](C)[C@H](NC(=O)CN)C(=O)N[C@@H](Cc1ccccc1)C(=O)N[C@H]1CSCc2ccc(cc2)CSC[C@@H](C(=O)N[C@@H](CCCCN)C(=O)N[C@@H](CCCCN)C(=O)N[C@H](C(=O)N[C@@H](CCCCN)C(=O)N[C@@H](CC(N)=O)C(=O)N[C@@H](CC(C)C)C(=O)N[C@@H](CC(C)C)C(=O)N[C@H](C(=O)N[C@@H](CO)C(=O)NCC(=O)N[C@@H](CC(C)C)C(=O)N[C@@H](CCCCN)C(=O)NCC(N)=O)[C@@H](C)CC)[C@@H](C)CC)NC(=O)[C@H](C)NC(=O)[C@H](CC(C)C)NC(=O)[C@H](CCCCN)NC1=O` [compound 6] (H-GIFCKLACKKIKNLLISGLKG-NH2; linker 4-8 via pXylylene; N-terminus assumed), the IC50 was 25 µg/mL (≈ 10.6 µM) in series [1] and 15 µg/mL (≈ 6.39 µM) in series [2]. Take `CC[C@H](C)[C@H](NC(=O)CN)C(=O)N[C@@H](Cc1ccccc1)C(=O)N[C@H]1CSCC=CCSC[C@@H](C(=O)N[C@@H](CCCCN)C(=O)N[C@@H](CCCCN)C(=O)N[C@H](C(=O)N[C@@H](CCCCN)C(=O)N[C@@H](CC(N)=O)C(=O)N[C@@H](CC(C)C)C(=O)N[C@@H](CC(C)C)C(=O)N[C@H](C(=O)N[C@@H](CO)C(=O)NCC(=O)N[C@@H](CC(C)C)C(=O)N[C@@H](CCCCN)C(=O)NCC(N)=O)[C@@H](C)CC)[C@@H](C)CC)NC(=O)[C@H](C)NC(=O)[C@H](CC(C)C)NC(=O)[C@H](CCCCN)NC1=O` [compound 7] (H-GIFCKLACKKIKNLLISGLKG-NH2; linker 4-8 via X1; N-terminus assumed): the results for the IC50 in series [1] and in series [2] were 51 µg/mL (≈ 22.2 µM) and 62 µg/mL (≈ 27 µM), respectively. On to `CC[C@H](C)[C@H](NC(=O)CN)C(=O)N[C@@H](Cc1ccccc1)C(=O)N[C@@H](CO)C(=O)N[C@@H](CCCCN)C(=O)N[C@@H](CC(C)C)C(=O)N[C@@H](C)C(=O)NCC(=O)N[C@H]1CSCc2ccc(cc2)-c2ccc(cc2)CSC[C@@H](C(=O)N[C@@H](CO)C(=O)NCC(=O)N[C@@H](CC(C)C)C(=O)N[C@@H](CCCCN)C(=O)NCC(N)=O)NC(=O)[C@H](CC(C)C)NC(=O)[C@H](CC(C)C)NC(=O)[C@H](CC(N)=O)NC(=O)[C@H](CCCCN)NC(=O)[C@H]([C@@H](C)CC)NC(=O)[C@H](CCCCN)NC1=O` [compound 70] (H-GIFSKLAGCKIKNLLCSGLKG-NH2; linker 9-16 via Biphenyl(4,4'-CH2)2; N-terminus assumed), for which the IC50 in series [1] is 23 µg/mL (≈ 9.88 µM). On to `CC[C@H](C)[C@H](NC(=O)CN)C(=O)N[C@@H](Cc1ccccc1)C(=O)N[C@@H](CO)C(=O)N[C@@H](CCCCN)C(=O)N[C@@H](CC(C)C)C(=O)N[C@@H](C)C(=O)NCC(=O)N[C@@H](CCCCN)C(=O)N[C@H]1CSCc2ccc(cc2)-c2ccc(cc2)CSC[C@@H](C(=O)NCC(=O)N[C@@H](CC(C)C)C(=O)N[C@@H](CCCCN)C(=O)NCC(N)=O)NC(=O)[C@H]([C@@H](C)CC)NC(=O)[C@H](CC(C)C)NC(=O)[C@H](CC(C)C)NC(=O)[C@H](CC(N)=O)NC(=O)[C@H](CCCCN)NC(=O)[C@H]([C@@H](C)CC)NC1=O` [compound 74] (H-GIFSKLAGKCIKNLLICGLKG-NH2; linker 10-17 via Biphenyl(4,4'-CH2)2; N-terminus assumed), for which the IC50 in series [2] worked out at 4 µg/mL (≈ 1.7 µM). Regarding `CC[C@H](C)[C@H](NC(=O)CN)C(=O)N[C@@H](Cc1ccccc1)C(=O)N[C@@H](CO)C(=O)N[C@@H](CCCCN)C(=O)N[C@@H](CC(C)C)C(=O)N[C@@H](C)C(=O)NCC(=O)N[C@@H](CCCCN)C(=O)N[C@@H](CCCCN)C(=O)N[C@H]1CSCc2ccc(cc2)-c2ccc(cc2)CSC[C@@H](C(=O)N[C@@H](CC(C)C)C(=O)N[C@@H](CCCCN)C(=O)NCC(N)=O)NC(=O)[C@H](CO)NC(=O)[C@H]([C@@H](C)CC)NC(=O)[C@H](CC(C)C)NC(=O)[C@H](CC(C)C)NC(=O)[C@H](CC(N)=O)NC(=O)[C@H](CCCCN)NC1=O` [compound 76] (H-GIFSKLAGKKCKNLLISCLKG-NH2; linker 11-18 via Biphenyl(4,4'-CH2)2; N-terminus assumed), in series [1], the IC50 came out at 23 µg/mL (≈ 9.59 µM).

With `CC[C@H](C)[C@H](NC(=O)CN)C(=O)N[C@@H](Cc1ccccc1)C(=O)N[C@@H](CO)C(=O)N[C@@H](CCCCN)C(=O)N[C@@H](CC(C)C)C(=O)N[C@@H](C)C(=O)NCC(=O)N[C@@H](CCCCN)C(=O)N[C@@H](CCCCN)C(=O)N[C@H](C(=O)N[C@H]1CSCc2ccc(cc2)-c2ccc(cc2)CSC[C@@H](C(=O)N[C@@H](CCCCN)C(=O)NCC(N)=O)NC(=O)CNC(=O)[C@H](CO)NC(=O)[C@H]([C@@H](C)CC)NC(=O)[C@H](CC(C)C)NC(=O)[C@H](CC(C)C)NC(=O)[C@H](CC(N)=O)NC1=O)[C@@H](C)CC` [compound 79] (H-GIFSKLAGKKICNLLISGCKG-NH2; linker 12-19 via Biphenyl(4,4'-CH2)2; N-terminus assumed), the IC50 in series [1] was 50 µg/mL (≈ 21.5 µM).

In turn, `CC[C@H](C)[C@H](NC(=O)CN)C(=O)N[C@@H](Cc1ccccc1)C(=O)N[C@@H](CO)C(=O)N[C@@H](CCCCN)C(=O)N[C@@H](CC(C)C)C(=O)N[C@@H](C)C(=O)NCC(=O)N[C@@H](CCCCN)C(=O)N[C@@H](CCCCN)C(=O)N[C@H](C(=O)N[C@@H](CCCCN)C(=O)N[C@@H](CC(N)=O)C(=O)N[C@H]1CSCc2ccc(cc2)-c2ccc(cc2)CSC[C@@H](C(N)=O)NC(=O)[C@H](CCCCN)NC(=O)[C@H](CC(C)C)NC(=O)CNC(=O)[C@H](CO)NC(=O)[C@H]([C@@H](C)CC)NC(=O)[C@H](CC(C)C)NC1=O)[C@@H](C)CC` [compound 86] (H-GIFSKLAGKKIKNCLISGLKC-NH2; linker 14-21 via Biphenyl(4,4'-CH2)2; N-terminus assumed) displayed an IC50 in series [1] of 9 µg/mL (≈ 3.75 µM). Consider `CC[C@H](C)[C@H](NC(=O)CN)C(=O)N[C@@H](Cc1ccccc1)C(=O)N[C@@H](CO)C(=O)N[C@@H](CCCCN)C(=O)N[C@@H](CC(C)C)C(=O)N[C@H]1CSCc2ccc(cc2)CSC[C@@H](C(=O)N[C@@H](CCCCN)C(=O)N[C@@H](CC(N)=O)C(=O)N[C@@H](CC(C)C)C(=O)N[C@@H](CC(C)C)C(=O)N[C@H](C(=O)N[C@H]2CSCc3ccc(cc3)CSC[C@@H](C(N)=O)NC(=O)[C@H](CCCCN)NC(=O)[C@H](CC(C)C)NC(=O)CNC2=O)[C@@H](C)CC)NC(=O)[C@H](CCCCN)NC(=O)[C@H](CCCCN)NC(=O)CNC1=O` [compound 90] (H-GIFSKLCGKKCKNLLICGLKC-NH2; linker 7-11, 17-21 via pXylylene; N-terminus assumed), for which the IC50 in series [2] (90 minutes of incubation, LDH release, read-out: Inhibitory Concentration at 50% Cytotoxicity (IC50) Human Renal Proximal Tubule Epithelial Cells (RPTEC)) is above 200 µg/mL.

On to `CC[C@H](C)[C@H](NC(=O)CN)C(=O)N[C@@H](Cc1ccccc1)C(=O)N[C@@H](CO)C(=O)N[C@@H](CCCCN)C(=O)N[C@@H](CC(C)C)C(=O)N[C@H]1CSCc2cccc(c2)CSC[C@@H](C(=O)N[C@@H](CCCCN)C(=O)N[C@@H](CC(N)=O)C(=O)N[C@@H](CC(C)C)C(=O)N[C@@H](CC(C)C)C(=O)N[C@H](C(=O)N[C@@H](CO)C(=O)NCC(=O)N[C@@H](CC(C)C)C(=O)N[C@@H](CCCCN)C(=O)NCC(=O)O)[C@@H](C)CC)NC(=O)[C@H](CCCCN)NC(=O)[C@H](CCCCN)NC(=O)CNC1=O` [compound 91] (H-GIFSKLCGKKCKNLLISGLKG-OH; linker 7-11 via mXylylene; N-terminus assumed), for which the IC50 in series [2] is above 200 µg/mL.
